Where a name gives a salt, the structure may show the parent alone.

For one test, the target named is Cbl-b (Homo sapiens (Human), UniProt Q13191). Put plainly: Cbl-b LCK Ub TR-FRET assay (Cbl-b Lck HTRF). It counts as biochemical. In a few lines: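 Biotin-Cbl-b preincubated with compound (10-point 3-fold series) 60 min, then His-LCK with 1 mM ATP (2× mixture) added for 90 min at room temperature. Ubiquitination detected by TR-FRET using HA-ubiquitin/UBE2D2 adduct, anti-HA-D2 and streptavidin-Eu; IC50 normalised to no-LCK and DMSO controls.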

The next test deals with c-Cbl (Homo sapiens (Human), UniProt P22681). Put plainly: C-Cbl LCK Ub TR-FRET assay (c-cbl Lck HTRF). It counts as biochemical. The conditions noted are these: for (fold-selectivity): C-cbl Lck HTRF IC50 relative to Cbl-b Lck HTRF IC50. In a few lines: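 After the ubiquitination reaction, detection mixture was added and plates incubated 20 min at room temperature before reading. IC50 values were calculated with wells lacking LCK as the low control and DMSO as the high control.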
(In general: Time-resolved FRET reads energy transfer from a long-lived donor to a nearby acceptor.)

c-Cbl, sequence (P22681 47-435): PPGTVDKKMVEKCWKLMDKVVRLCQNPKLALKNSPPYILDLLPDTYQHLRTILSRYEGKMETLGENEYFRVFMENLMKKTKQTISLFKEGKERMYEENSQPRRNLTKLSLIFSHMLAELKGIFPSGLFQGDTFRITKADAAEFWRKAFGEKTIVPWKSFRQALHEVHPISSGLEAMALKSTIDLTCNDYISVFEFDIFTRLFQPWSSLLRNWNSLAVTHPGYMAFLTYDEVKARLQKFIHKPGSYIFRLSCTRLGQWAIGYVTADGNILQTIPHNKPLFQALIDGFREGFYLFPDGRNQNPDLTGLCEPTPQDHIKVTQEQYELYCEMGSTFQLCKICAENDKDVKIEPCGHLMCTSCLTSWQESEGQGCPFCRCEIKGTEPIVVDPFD
Cbl-b, sequence (Q13191 40-426): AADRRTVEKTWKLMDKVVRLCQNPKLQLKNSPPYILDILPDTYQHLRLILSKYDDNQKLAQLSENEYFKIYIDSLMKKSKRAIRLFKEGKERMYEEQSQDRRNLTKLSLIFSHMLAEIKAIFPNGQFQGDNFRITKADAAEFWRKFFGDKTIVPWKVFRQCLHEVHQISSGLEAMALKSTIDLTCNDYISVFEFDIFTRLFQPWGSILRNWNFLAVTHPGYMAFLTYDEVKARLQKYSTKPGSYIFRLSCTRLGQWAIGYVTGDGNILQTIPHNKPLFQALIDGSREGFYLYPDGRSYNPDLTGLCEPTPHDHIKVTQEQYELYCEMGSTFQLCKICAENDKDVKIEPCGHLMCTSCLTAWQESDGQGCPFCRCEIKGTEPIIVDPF

Usually IC50 stands for the concentration at which inhibition is half-maximal. Read a low IC50 as inhibition by little substance. For the molecule `Cn1cnnc1[C@@H](F)C1(c2cccc(N3Cc4c(cc(CN5CC(S(C)(=O)=O)C5)cc4C(F)(F)F)C3=O)c2)COC1` [Compound 164, (S)-2-(3-(3-(fluoro(4-methyl-4H-1,2,4-triazol-3-yl)methyl)oxetan-3-yl)phenyl)-6-((3-(methylsulfonyl)azetidin-1-yl)methyl)-4-(trifluoromethyl)isoindolin-1-one], on Cbl-b, half-maximal inhibition (IC50) required 350 nM. Also, on c-Cbl, inhibition was half-maximal at 640 nM (IC50) and the “(fold-selectivity)” value is given as 1.8x.
Take `CC(C)[C@H]1CN(C)CCN1Cc1cc2c(c(C(F)(F)F)c1)CN(c1cccc(C3([C@H](F)c4n[nH]cc4C(F)(F)F)COC3)c1)C2=O` [Compound 376, 2-(3-(3-((S)-fluoro(4-(trifluoromethyl)-1H-pyrazol-3-yl)methyl)oxetan-3-yl)phenyl)-6-(((S)-2-isopropyl-4-methylpiperazin-1-yl)methyl)-4-(trifluoromethyl)isoindolin-1-one]: half-maximal inhibition at Cbl-b (IC50) required 20000 nM. Besides, at c-Cbl, the concentration for half-maximal inhibition (IC50) came out at 20000 nM and the “(fold-selectivity)” value is given as “(1.0x)”.
Turning to `CC(C)[C@H]1CN(C)CCN1Cc1cc2c(c(C(F)(F)F)c1)CN(c1cccc(C3([C@@H](F)c4nncn4C4CC4)COC3)c1)C2=O` [Compound 486, 2-(3-(3-((R)-(4-cyclopropyl-4H-1,2,4-triazol-3-yl)fluoromethyl)oxetan-3-yl)phenyl)-6-(((S)-2-isopropyl-4-methylpiperazin-1-yl)methyl)-4-(trifluoromethyl)isoindolin-1-one], the IC50 at Cbl-b stood at 77 nM. At c-Cbl, the IC50 worked out at 93 nM and the “(fold-selectivity)” value was “(1.2x)”.
Consider `Cn1cnnc1CC1(c2cccc(N3Cc4c(cc(CN5Cc6c[nH]nc6C5)cc4C(F)(F)F)C3=O)c2)CC(F)(F)C1` [Compound 105, 2-(3-(3,3-difluoro-1-((4-methyl-4H-1,2,4-triazol-3-yl)methyl)cyclobutyl)phenyl)-6-((2,6-dihydropyrrolo[3,4-c]pyrazol-5(4H)-yl)methyl)-4-(trifluoromethyl)isoindolin-1-one], for which the IC50 against Cbl-b is 26 nM; against c-Cbl, 25 nM. In addition, the “(fold-selectivity)” value at c-Cbl turned out to be 0.93x.
`C[C@@H](N)c1cc2c(c(C(F)(F)F)c1)CN(c1cccc(C3(Cc4nncn4C)CC(F)(F)C3)c1)C2=O` [Compound 385, (R)-6-(1-aminoethyl)-2-(3-(3,3-difluoro-1-((4-methyl-4H-1,2,4-triazol-3-yl)methyl)cyclobutyl)phenyl)-4-(trifluoromethyl)isoindolin-1-one] yielded an IC50 at Cbl-b of 24 nM. In addition, at c-Cbl, it took 22 nM to reach half-maximal inhibition (IC50) and the “(fold-selectivity)” value is “(0.93x)”.
With `Cn1cnnc1[C@H](F)C1(c2cccc(N3Cc4c(cc(CN5CCC6(CC6)C5)cc4C(F)(F)F)C3=O)c2)CC1` [Compound 27, (R)-6-(5-azaspiro[2.4]heptan-5-ylmethyl)-2-(3-(1-(fluoro(4-methyl-4H-1,2,4-triazol-3-yl)methyl)cyclopropyl)phenyl)-4-(trifluoromethyl)isoindolin-1-one], the IC50 turned out to be 39 nM against Cbl-b and 61 nM against c-Cbl.
On to `Cn1cnnc1CC1(c2cccc(N3Cc4c(cc([C@@H](N)C5CC5)cc4C(F)(F)F)C3=O)c2)CC(F)(F)C1` [Compound 453, (S)-6-(amino(cyclopropyl)methyl)-2-(3-(3,3-difluoro-1-((4-methyl-4H-1,2,4-triazol-3-yl)methyl)cyclobutyl)phenyl)-4-(trifluoromethyl)isoindolin-1-one], for which the half-maximal inhibitory concentration (IC50) on Cbl-b turned out to be 14 nM; against c-Cbl, 18 nM. For the same molecule, the “(fold-selectivity)” value at c-Cbl is “(1.4x)”.
The molecule `COCC1CCN(Cc2cc3c(c(C(F)(F)F)c2)CN(c2cccc(C4([C@H](F)c5nncn5C)COC4)c2)C3=O)CC1` [Compound 146, (S)-2-(3-(3-(fluoro(4-methyl-4H-1,2,4-triazol-3-yl)methyl)oxetan-3-yl)phenyl)-6-((4-(methoxymethyl)piperidin-1-yl)methyl)-4-(trifluoromethyl)isoindolin-1-one] yielded a 50% inhibitory concentration (IC50) against Cbl-b of 430 nM. In addition, at c-Cbl, half-maximal inhibition (IC50) required 480 nM and the “(fold-selectivity)” value is 1.1x.
Regarding `Cn1cnnc1CC1(c2cccc(N3Cc4c(cc(CN)cc4C(F)(F)F)C3=O)c2)COC1` [Compound 66, 6-(aminomethyl)-2-(3-(3-((4-methyl-4H-1,2,4-triazol-3-yl)methyl)oxetan-3-yl)phenyl)-4-(trifluoromethyl)isoindolin-1-one formate], the IC50 at Cbl-b turned out to be 76 nM; at c-Cbl it was 100 nM.
Molecule `CC(C)[C@@H]1CNCCN1Cc1cc2c(c(C(F)(F)F)c1)CN(c1cccc(C3([C@@H](F)c4nncn4C)COC3)c1)C2=O` [Compound 94, 2-(3-(3((R)-fluoro(4-methyl-4H-1,2,4-triazol-3-yl)methyl)oxetan-3-yl)phenyl)-6-(((R)-2-isopropylpiperazin-1-yl)methyl)-4-(trifluoromethyl)isoindolin-1-one] displayed an IC50 at Cbl-b of 180 nM. Moreover, at c-Cbl, the IC50 was 200 nM and the “(fold-selectivity)” value was 1.1x.
In the same order, the values of `CC(=O)N1CCC(CNc2cc(C3(Cc4nncn4C)CCC3)cc(N3Cc4c(cc(CNC5(C)CCC5)cc4C(F)(F)F)C3=O)n2)CC1.Cl` [Compound 329, 2-(6-(((1-acetylpiperidin-4-yl)methyl)amino)-4-(1-((4-methyl-4H-1,2,4-triazol-3-yl)methyl)cyclobutyl)pyridin-2-yl)-6-(((1-methylcyclobutyl)amino)methyl)-4-(trifluoromethyl)isoindolin-1-one hydrochloride] are 98 nM, 65 nM and “(0.66x)”.
Taken in the same sequence, the figures for `C=CC(=O)Nc1cc(C2(Cc3nncn3C)CCC2)cc(N2Cc3c(cc(CN4CCN(C)C[C@@H]4C(C)C)cc3C(F)(F)F)C2=O)n1` [Compound 239, (S)—N-(6-(6-((2-isopropyl-4-methylpiperazin-1-yl)methyl)-1-oxo-4-(trifluoromethyl)isoindolin-2-yl)-4-(1-((4-methyl-4H-1,2,4-triazol-3-yl)methyl)cyclobutyl)-pyridin-2-yl)acrylamide] were 35 nM, 48 nM and “(1.4x)”.
Taken in the same sequence, the figures for `CC(C)[C@H]1CN(C)CCN1Cc1cc2c(c(C(F)(F)F)c1)CN(c1cccc(C3([C@H](F)c4nncn4C4CCCCC4)COC3)c1)C2=O` [Compound 455, 2-(3-(3-((S)-(4-cyclohexyl-4H-1,2,4-triazol-3-yl)fluoromethyl)oxetan-3-yl)phenyl)-6-(((S)-2-isopropyl-4-methylpiperazin-1-yl)methyl)-4-(trifluoromethyl)isoindolin-1-one] were 4400 nM, 3100 nM and “(0.70x)”.
On Cbl-b, `Cn1cnnc1CC1(c2cc(NCC3CCS(=O)(=O)CC3)nc(N3Cc4c(cc(CNC5(C)CCC5)cc4C(F)(F)F)C3=O)c2)CCC1` [Compound 315, 2-(6-(((1,1-dioxidotetrahydro-2H-thiopyran-4-yl)methyl)amino)-4-(1-((4-methyl-4H-1,2,4-triazol-3-yl)methyl)cyclobutyl)pyridin-2-yl)-6-(((1-methylcyclobutyl)amino)methyl)-4-(trifluoromethyl)isoindolin-1-one] yielded an IC50 of 570 nM. Moreover, on c-Cbl, 480 nM corresponded to half-maximal inhibition (IC50) and the “(fold-selectivity)” value is given as “(0.84x)”.

(Values after patent publication US20250230147A1, “LACTAMS AS CBL-B INHIBITORS” (Genentech, Inc., priority 2021, published 2025).)
